Data set [1] in a line: Measurement of the dissolution rate for the dried crystals (dissolution tester). The format is physicochemical. The note with it: 0.5 g crystals in 900 ml ion exchanged water kept at 20 °C, stirring 100 rpm. The method, then: The dissolution rates of the A-type crystals (Reference Example 4 (b)) and the D-type crystals (Example 1) were determined in the following method. The apparatus used was "DISSOLUTION TESTER" (NTR-6100) manufactured by Toyama Sangyo K. K. 0.5 g each of the A-type crystals and D-type crystals were introduced into 900 ml ion exchanged water kept at 20 °C at a stirring in the number of revolution of 100 rpm, and the time which elapsed until the crystals came to be completely dissolved was measured.

The conditions of data set [2]: cited from earlier work.

Consider `COC(=O)[C@H](Cc1ccccc1)NC(=O)[C@H](CC(=O)O)NCCC(C)(C)C` [A-type crystals, N-[N-(3,3-dimethylbutyl)-L-α-aspartyl]-L-phenylalanine methyl ester, reference compound], for which, in data set [1], the “time which elapsed until the crystals came to be completely dissolved” value was “about 35 minutes”.

Take `COC(=O)[C@H](Cc1ccccc1)NC(=O)[C@H](CC(=O)O)NCCC(C)(C)C` [D-type crystals, N-[N-(3,3-dimethylbutyl)-L-α-aspartyl]-L-phenylalanine methyl ester]: the “time which elapsed until the crystals came to be completely dissolved” value in data set [1] is “about 5 minutes”.

Regarding `COC(=O)[C@H](Cc1ccccc1)NC(=O)[C@H](CC(=O)O)NCCC(C)(C)C` [N-(3,3-dimethylbutyl)-APM, N-[N-(3,3-dimethylbutyl)-L-α-aspartyl]-L-phenylalanine methyl ester], the “efficacy of sweetness relative to Aspartame” value in data set [2] (in weight ratio, versus Aspartame) is listed as “at least 50 times”. Moreover, the “efficacy of sweetness relative to sucrose (table sugar)” value in data set [2] (versus sucrose (table sugar)) is on record as “about 10,000 times”.
